Here are results for 27 compounds from EP4644375A1, “SUBSTITUTED HYDROQUINOLINES FOR THE TREATMENT OF GLIOBLASTOMA MULTIFORME” (Molius Saglik Teknolojileri Anonim Sirketi, priority 2024, dated 2025).

Test [1] relates to U138-MG human glioma cell. The test is described as follows: Cell proliferation analysis (MTT). The following applies: 10 µM, two days, MTT; for activity at 10 µM / inhibition at 10 µM: Homo sapiens, 48 h. Type of test: cell-based.
The subject of test [2] is U87-MG human glioma cell. In words: Cell proliferation analysis (MTT). Format: cell-based. The conditions noted are these: for activity at 10 µM / inhibition at 10 µM: Homo sapiens, U-87 MG, 48 h.

For `O=C(COc1ccc2c(c1)CCC(=O)N2)N/N=C/c1ccc([N+](=O)[O-])cc1` [TR-G055, (E)-N'-(4-nitrobenzylidene)-2-((2-oxo-1,2,3,4-tetrahydroquinolin-6-yl)oxy)acetohydrazide], in test [1], the activity at 10 µM is 92% and the inhibition at 10 µM stood at 8%. Moreover, in test [2] (10 µM, two days, MTT), the activity at 10 µM was determined as 85% and the inhibition at 10 µM was 15%.

Consider `O=C(COc1ccc2c(c1)CCC(=O)N2)N/N=C/c1ccc(-c2ccccc2)cc1` [TR-G145, (E)-N'-([1,1'-biphenyl}-4-ylmethylene)-2-((2-oxo-1,2,3,4-tetrahydroquinolin-6-yl)oxy)acetohydrazide], for which, in test [1], the activity at 10 µM was 59% and the inhibition at 10 µM was determined as 41%. In test [2] (10 µM, two days, MTT), the activity at 10 µM came out at 49% and the inhibition at 10 µM came to 51%.

In the case of `O=C(OCCCCOc1ccc2c(c1)CCC(=O)N2CCCCOC(=O)c1ccccc1)c1ccccc1` [TR-G013A, 4-(6-(4-(benzoyloxy)butoxy)-2-oxo-3,4-dihydroquinolin-1(2H)-yl)butyl benzoate], in test [1], the activity at 10 µM was found to be 53% and the inhibition at 10 µM worked out at 47%. In addition, in test [2] (10 µM, two days, MTT), the activity at 10 µM was 46% and the inhibition at 10 µM turned out to be 54%.

For `CC(C)(C)c1ccc(COc2ccc3c(c2)CCC(=O)N3)cc1` [TR-G030, 6-((4-(tert-butyl)benzyl)oxy)-3,4-dihydroquinolin-2(1H)-one], in test [1], the activity at 10 µM is 63% and the inhibition at 10 µM was determined as 38%. In test [2] (10 µM, two days, MTT), the activity at 10 µM worked out at 53% and the inhibition at 10 µM was found to be 47%.

Turning to `O=C(COc1ccc2c(c1)CCC(=O)N2)N/N=C/c1ccccn1` [TR-G059, (E)-2-((2-oxo-1,2,3,4-tetrahydroquinolin-6-yl)oxy)-N'-(pyridin-2-ylmethylene)acetohydrazide], the activity at 10 µM in test [1] came out at 81%; in test [2] (10 µM, two days, MTT), 79%. Moreover, the inhibition at 10 µM in test [1] turned out to be 20%; in test [2] (10 µM, two days, MTT) it was 21%.

As for `COc1ccc(C=NNC(=O)COc2ccc3c(c2)CCC(=O)N3)c(OC)c1` [TR-G022, N'-(2,4-dimethoxybenzylidene)-2-((2-oxo-1,2,3,4-tetrahydroquinolin-6-yl)oxy)acetohydrazide], in test [1], the activity at 10 µM worked out at 75% and the inhibition at 10 µM is 25%. Moreover, in test [2] (10 µM, two days, MTT), the activity at 10 µM amounted to 98% and the inhibition at 10 µM came out at 2%.

On to `O=C(COc1ccc2c(c1)CCC(=O)N2)N/N=C/c1ccco1` [TR-G025, (E)-N'-(furan-2-ylmethylene)-2-((2-oxo-1,2,3,4-tetrahydroquinolin-6-yl)oxy)acetohydrazide], for which the activity at 10 µM in test [1] was determined as 90%; in test [2] (10 µM, two days, MTT), 75%. The inhibition at 10 µM in test [1] was found to be 10%; in test [2] (10 µM, two days, MTT) it was 25%.

As to `O=C(COc1ccc2c(c1)CCC(=O)N2)N/N=C/c1ccc(-c2ccc(Cl)cc2)cc1` [TR-G146, (E)-N'-((4'-chloro-[1,1'-biphenyl)-4-yl)methylene)-2-((2-oxo-1,2,3,4-tetrahydroquinolin-6-yl)oxy)acetohydrazide], the inhibition at 10 µM in test [1] is 21%; in test [2] (10 µM, two days, MTT) it was 37%.

As to `CCCn1cc(COc2ccc3c(c2)CCC(=O)N3)nn1` [TR-G082, 6-((1-propyl-1H-1,2,3-triazol-4-yl)methoxy)-3,4-dihydroquinolin-2(1H)-one], in test [1], the activity at 10 µM is 89% and the inhibition at 10 µM came to 11%. Further, in test [2] (10 µM, two days, MTT), the activity at 10 µM was 74% and the inhibition at 10 µM came out at 26%.

For `O=C1CCc2cc(OCCCCc3nnnn3C3CCCCC3)ccc2N1CCCc1ccccc1` [TR-G106, 6-(4-(1-cyclohexyl-1H-tetrazol-5-yl)butoxy)-1-(3-phenylpropyl)-3,4-dihydroquinolin-2(1H)-one], in test [1], the activity at 10 µM was determined as 66% and the inhibition at 10 µM stood at 35%. For the same compound, in test [2] (10 µM, two days, MTT), the activity at 10 µM is 73% and the inhibition at 10 µM turned out to be 27%.

Turning to `O=C(COc1ccc2c(c1)CCC(=O)N2)Nc1ccc(F)c(Cl)c1` [TR-G075, N-(3-chloro-4-fluorophenyl)-2-((2-oxo-1,2,3,4-tetrahydroquinolin-6-yl)oxy)acetamide], in test [1], the activity at 10 µM came to 85% and the inhibition at 10 µM came to 15%. In addition, in test [2] (10 µM, two days, MTT), the activity at 10 µM stood at 68% and the inhibition at 10 µM was 32%.

`C=CCCCOc1ccc2c(c1)CCC(=O)N2` [TR-G144, 6-(pent-4-en-i-yloxy)-3,4-dihydroquinolin-2(1H)-one]: in test [1], the activity at 10 µM was found to be 70% and the inhibition at 10 µM was found to be 30%. Also, in test [2] (10 µM, two days, MTT), the activity at 10 µM was 61% and the inhibition at 10 µM stood at 39%.

Turning to `CCOC(=O)CCn1cc(COc2ccc3c(c2)CCC(=O)N3)nn1` [TR-G079, ethyl 3-(4-(((2-oxo-1,2,3,4-tetrahydroquinolin-6-yl)oxy)methyl)-1H-1,2,3-triazol-1-yl)propanoate], in test [1], the activity at 10 µM is 112% and the inhibition at 10 µM is -12%. Also, in test [2] (10 µM, two days, MTT), the activity at 10 µM is 94% and the inhibition at 10 µM was found to be 6%.

Consider `O=C1CCc2cc(OCCBr)ccc2N1` [TR-G017, 6-(2-bromoethoxy)-3,4-dihydroquinolin-2(1H)-one], for which, in test [1], the activity at 10 µM worked out at 82% and the inhibition at 10 µM is 18%. Besides, in test [2] (10 µM, two days, MTT), the activity at 10 µM is 94% and the inhibition at 10 µM came to 6%.

For `CC(=O)CCn1cc(COc2ccc3c(c2)CCC(=O)N3)nn1` [TR-G147, 6-((1-(3-oxobutyl)-1H-1,2,3-triazol-4-yl)methoxy)-3,4-dihydroquinolin-2(1H)-one], in test [1], the activity at 10 µM came to 122% and the inhibition at 10 µM is -22%. In test [2] (10 µM, two days, MTT), the activity at 10 µM came out at 89% and the inhibition at 10 µM stood at 11%.

Turning to `O=C1CCc2cc(OS(=O)(=O)c3ccc(C(F)(F)F)cc3)ccc2N1` [TR-G073, 2-oxo-1,2,3,4-tetrahydroquinolin-6-yl 4-(trifluoromethyl)benzenesulfonate], in test [1], the activity at 10 µM worked out at 94% and the inhibition at 10 µM turned out to be 6%. In test [2] (10 µM, two days, MTT), the activity at 10 µM turned out to be 87% and the inhibition at 10 µM amounted to 13%.

For `O=C1CCc2cc(OC(=O)Nc3ccc(F)cc3)ccc2N1` [TR-G140, 2-oxo-1,2,3,4-tetrahydroquinolin-6-yl (4-fluorophenyl)carbamate], the activity at 10 µM is 91% in test [1] and 80% in test [2] (10 µM, two days, MTT). Further, the inhibition at 10 µM in test [1] was 9%; in test [2] (10 µM, two days, MTT) it was 20%.

Regarding `O=C(COc1ccc2c(c1)CCC(=O)N2)Nc1ccc2ncccc2c1` [TR-G089, 2-((2-oxo-1,23,4-tetrahydroquinolin-6-yl)oxy)-N-(quinolin-6-yl)acetamide], in test [1], the activity at 10 µM was 67% and the inhibition at 10 µM turned out to be 33%. Besides, in test [2] (10 µM, two days, MTT), the activity at 10 µM came to 67% and the inhibition at 10 µM came out at 33%.

`O=C1CCc2cc(OCc3cn(Cc4ccc(F)cc4)nn3)ccc2N1` [TR-G086, 6-((1-(4-fluorobenzyl)-1H-1,2,3-triazol-4-yl)methoxy)-3,4-dihydroquinolin-2(1H)-one]: in test [1], the activity at 10 µM worked out at 79% and the inhibition at 10 µM came to 21%. In test [2] (10 µM, two days, MTT), the activity at 10 µM worked out at 79% and the inhibition at 10 µM turned out to be 21%.

For `O=C1CCc2cc(OCc3cn(-c4cccc5[nH]ncc45)nn3)ccc2N1` [TR-G078, 6-((1-(1H-indazol-4-yl)-1H-1,2,3-triazol-4-yl)methoxy)-3,4-dihydroquinolin-2(1H)-one], in test [1], the activity at 10 µM worked out at 57% and the inhibition at 10 µM was found to be 43%. Also, in test [2] (10 µM, two days, MTT), the activity at 10 µM was 44% and the inhibition at 10 µM came to 56%. Moreover, in test [2] (ranking), the “top 5 target compounds whose treatment resulted in the lowest proliferation” value is “top 5”.

`CCCN1C(=O)CCc2cc(OCCCCc3nnnn3C3CCCCC3)ccc21` [TR-G105, 6-(4-(1-cyclohexyl-1H-tetrazol-5-yl)butoxy)-1-propyl-3,4-dihydroquinolin-2(1H)-one]: in test [1], the activity at 10 µM is 73% and the inhibition at 10 µM came out at 28%. In test [2] (10 µM, two days, MTT), the activity at 10 µM stood at 48% and the inhibition at 10 µM is 52%.

Take `O=C1CCc2cc(OCc3cc(-c4ccc(Cl)cc4)no3)ccc2N1` [TR-G084, 6-((3-(4-chlorophenyl)isoxazol-5-yl)methxy)-3,4-dihydroquinolin-2(1H)-one]: in test [1], the “Cell Proliferation (%)” value was 71% and the inhibition at 10 µM was determined as 30%. For the same compound, in test [2] (10 µM, two days, MTT), the “Cell Proliferation (%)” value was 65% and the inhibition at 10 µM came out at 35%.

Take `O=C(COc1ccc2c(c1)CCC(=O)N2)Nc1ccc(Br)cc1` [TR-G123]: in test [1], the activity at 10 µM was determined as 109% and the inhibition at 10 µM is -9%. Moreover, in test [2] (10 µM, two days, MTT), the activity at 10 µM worked out at 92% and the inhibition at 10 µM amounted to 8%.

With `O=C1CCc2cc(OC(=O)c3cccc([N+](=O)[O-])c3)ccc2N1` [TR-G081, 2-oxo-1,2,3,4-tetrahydroquinolin-6-yl 3-nitrobenzoate], in test [1], the activity at 10 µM was determined as 108% and the inhibition at 10 µM is -8%. Besides, in test [2] (10 µM, two days, MTT), the activity at 10 µM is 65% and the inhibition at 10 µM amounted to 35%.

Consider `O=C(COc1ccc2c(c1)CCC(=O)N2)N/N=C/c1ccccc1` [TR-G035, (E)-N'-benzylidene-2-((2-oxo-1,2,3,4-tetrahydroquinolin-6-yl)oxy)acetohydrazide], for which, in test [1], the activity at 10 µM came out at 74% and the inhibition at 10 µM stood at 26%. Moreover, in test [2] (10 µM, two days, MTT), the activity at 10 µM turned out to be 86% and the inhibition at 10 µM turned out to be 14%.

With `O=C1CCc2cc(OC(=O)Nc3cccc4ccccc34)ccc2N1` [TR-G135, 2-oxo-1,2,3,4-tetrahydroquinolin-6-yl naphthalene-1-ylcarbamate], in test [1], the activity at 10 µM came to 80% and the inhibition at 10 µM is 20%. In test [2] (10 µM, two days, MTT), the activity at 10 µM amounted to 71% and the inhibition at 10 µM is 29%.

Take `O=C1CCc2cc(OC(=O)CN3CCN(c4ncccn4)CC3)ccc2N1` [TR-G023, 2-oxo-1,2,3,4-tetrahydroquinolin-6-yl 2-(4-(pyrimidin-2-yl)piperazin-1-yl)acetate]: the activity at 10 µM in test [1] was found to be 99%; in test [2] (10 µM, two days, MTT), 83%. For the same compound, the inhibition at 10 µM stood at 1% in test [1] and 17% in test [2] (10 µM, two days, MTT).
